Like-named read-outs stand apart in the source and are kept apart here.
What was measured:
[1] = tested on: T47D (PI3Kα H1047R mutant) cells; assay: CellTiter-Glo 2.0 luminescent cell viability assay, 72 hours, T47D cells; assay type: cell-based; conditions: T47D (PI3Kα H1047R mutant) cells, CellTiter-Glo, approximately 72 hours, read-out: T47D (H1047R mutant) Viability IC50
Summary of the method: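 Cells seeded at 1000 per well overnight were dosed with a 10-concentration, 1:4 series starting at 10 µM and incubated ~72 h at 37° C. Viability was read by CellTiter-Glo 2.0 luminescence after 30 min at room temperature. IC50 came from four-parameter fits of percent vehicle control.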

[2] = tested on: SKBR3 (PI3Kα wild type) cells; assay: CellTiter-Glo 2.0 luminescent cell viability assay, 72 hours, SKBR3 cells; assay type: cell-based; conditions: Homo sapiens, SK-BR-3, 72 h, SKBR3 (PI3Kα wild type) cells, CellTiter-Glo, approximately 72 hours; read-out: SKBR3 (WT) Viability IC50
Summary of the method: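 Viability measured via CTG luminescence following roughly 72 hours of compound exposure at 37° C. Dosing used a 10 um starting concentration diluted 1:4 over 10 points; percent-of-vehicle data fitted with a variable-slope four-parameter model for IC50.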

| SMILES | IC50 ([1]; Homo sapiens, T47D, 72 h) [µM] | IC50 [2] [µM] | IC50 [1] [µM] |
| --- | --- | --- | --- |
| Cc1cc([C@@H](C)Nc2ccccc2C(=O)O)c2nc(N3CC4(C3)CC3(CCC3)C4)c(C)c(=O)n2c1 [Example 11-26, (R)-2-((1-(2-(2-azadispiro[3.1.3^6.1^4]decan-2-yl)-3,7-dimethyl-4-oxo-4H-pyrido[1,2-a]pyrimidin-9-yl)ethyl)amino)benzoic acid] | 0.216 | > 10 | – |
| Cc1cc([C@@H](C)Nc2ccc(C)nc2C(=O)O)c2nc(N3CCC(F)(F)CC3)c(C#N)c(=O)n2c1 [Example 10-17, (R)-3-((1-(3-cyano-2-(4,4-difluoropiperidin-1-yl)-7-methyl-4-oxo-4H-pyrido[1,2-a]pyrimidin-9-yl)ethyl)amino)-6-methylpicolinic acid] | 0.0384 | > 10 | – |
| Cc1cc([C@@H](C)Nc2ccccc2C(=O)O)c2nc(N3CCC4(CC3)CC4(F)F)c(C)c(=O)n2c1 [Example 11-219, (R)-2-((1-(2-(1,1-difluoro-6-azaspiro[2.5]octan-6-yl)-3,7-dimethyl-4-oxo-4H-pyrido[1,2-a]pyrimidin-9-yl)ethyl)amino)benzoic acid] | 0.495 | > 10 | – |
| Cc1cc([C@@H](C)Nc2ccccc2C(=O)O)c2nc(N3CCN(c4cnn(C)c4)CC3)c(C#N)c(=O)n2c1 [Example 11-264, (R)-2-((1-(3-cyano-7-methyl-2-(4-(1-methyl-1H-pyrazol-4-yl)piperazin-1-yl)-4-oxo-4H-pyrido[1,2-a]pyrimidin-9-yl)ethyl)amino)benzoic acid] | 1.18 | > 10 | – |
| Cc1cc([C@@H](C)Nc2ccccc2C(=O)O)c2nc(N3CCN(c4ccc(C(F)(F)F)cc4C#N)CC3C)c(C#N)c(=O)n2c1 (stereo partly drawn) [Example 11-78, 2-(((1R)-1-(3-cyano-2-(4-(2-cyano-4-(trifluoromethyl)phenyl)-2-methylpiperazin-1-yl)-7-methyl-4-oxo-4H-pyrido[1,2-a]pyrimidin-9-yl)ethyl)amino)benzoic acid] | 0.256 | > 10 | – |
| Cc1cc([C@@H](C)Nc2ccccc2C(=O)O)c2nc(N3CCC4(CCCO4)CC3)c(C)c(=O)n2c1 [Example 11-63, (R)-2-((1-(3,7-dimethyl-4-oxo-2-(1-oxa-8-azaspiro[4.5]decan-8-yl)-4H-pyrido[1,2-a]pyrimidin-9-yl)ethyl)amino)benzoic acid] | 0.136 | > 10 | – |
| Cc1cc([C@@H](C)Nc2ccccc2C(=O)O)c2nc(N3CCN(C4COC4)CC3)c(C#N)c(=O)n2c1 [Example 11-152, (R)-2-((1-(3-cyano-7-methyl-2-(4-(oxetan-3-yl)piperazin-1-yl)-4-oxo-4H-pyrido[1,2-a]pyrimidin-9-yl)ethyl)amino)benzoic acid] | 4.34 | > 10 | – |
| Cc1cc([C@@H](C)Nc2ccccc2C(=O)O)c2nc(N3CCC(N(C)C)CC3)c(C)c(=O)n2c1 [Example 11-311, (R)-2-((1-(2-(4-(dimethylamino)piperidin-1-yl)-3,7-dimethyl-4-oxo-4H-pyrido[1,2-a]pyrimidin-9-yl)ethyl)amino)benzoic acid] | 3.97 | > 10 | – |
| Cc1cc([C@@H](C)Nc2ccccc2C(=O)O)c2nc(N3CCC(c4cc[nH]n4)CC3)c(C)c(=O)n2c1 [Example 11-252, (R)-2-((1-(2-(4-(1H-pyrazol-3-yl)piperidin-1-yl)-3,7-dimethyl-4-oxo-4H-pyrido[1,2-a]pyrimidin-9-yl)ethyl)amino)benzoic acid] | 0.114 | > 10 | – |
| Cc1cc([C@@H](C)Nc2ccc(F)nc2C(=O)O)c2nc(N3Cc4ccccc4C3)c(C)c(=O)n2c1 [Example 11-351, (R)-6-fluoro-3-((1-(2-(isoindolin-2-yl)-3,7-dimethyl-4-oxo-4H-pyrido[1,2-a]pyrimidin-9-yl)ethyl)amino)picolinic acid] | – | > 10 | 0.946 |
| Cc1cc([C@@H](C)Nc2ccccc2C(=O)O)c2nc(N3CCN(c4ccc(C(N)=O)cc4)CC3)c(C)c(=O)n2c1 [Example 11-250, (R)-2-((1-(2-(4-(4-carbamoylphenyl)piperazin-1-yl)-3,7-dimethyl-4-oxo-4H-pyrido[1,2-a]pyrimidin-9-yl)ethyl)amino)benzoic acid] | 0.482 | > 10 | – |

More lines, now with the values ahead:

| IC50 ([1]; Homo sapiens, T47D, 72 h) [µM] | IC50 [2] [µM] | IC50 [1] [µM] | SMILES |
| --- | --- | --- | --- |
| > 10 | > 10 | – | Cc1cc(C(C)Nc2ccccc2C(=O)O)c2nc(Oc3cccc(C#N)c3)cc(=O)n2c1 (stereo not shown) [Example 11-340, 2-((1-(2-(3-cyanophenoxy)-7-methyl-4-oxo-4H-pyrido[1,2-a]pyrimidin-9-yl)ethyl)amino)benzoic acid] |
| 5.08 | > 10 | – | Cc1cc([C@@H](C)Nc2ccccc2C(=O)O)c2nc(N3CCC(O)CC3)c(C#N)c(=O)n2c1 [Example 11-312, (R)-2-((1-(3-cyano-2-(4-hydroxypiperidin-1-yl)-7-methyl-4-oxo-4H-pyrido[1,2-a]pyrimidin-9-yl)ethyl)amino)benzoic acid] |
| > 10 | > 10 | – | Cc1cc([C@@H](C)Nc2ccccc2C(=O)O)c2nc(N3CCNCC3)c(C#N)c(=O)n2c1 [Example 11-296, (R)-2-((1-(3-cyano-7-methyl-4-oxo-2-(piperazin-1-yl)-4H-pyrido[1,2-a]pyrimidin-9-yl)ethyl)amino)benzoic acid] |
| 0.212 | > 10 | – | Cc1cc([C@@H](C)Nc2ccccc2C(=O)O)c2nc(-c3cnn(-c4ccc(C#N)cc4)c3)c(C)c(=O)n2c1 [Example 11-233, (R)-2-((1-(2-(1-(4-cyanophenyl)-1H-pyrazol-4-yl)-3,7-dimethyl-4-oxo-4H-pyrido[1,2-a]pyrimidin-9-yl)ethyl)amino)benzoic acid] |
| 0.242 | > 10 | – | Cc1cc([C@@H](C)Nc2ccccc2C(=O)O)c2nc(N3C[C@H](F)C[C@@H](F)C3)c(C#N)c(=O)n2c1 [Example 11-47, 2-(((R)-1-(3-cyano-2-((3R,5R)-3,5-difluoropiperidin-1-yl)-7-methyl-4-oxo-4H-pyrido[1,2-a]pyrimidin-9-yl)ethyl)amino)benzoic acid] |
| 2.52 | > 10 | – | Cc1cc([C@@H](C)Nc2ccccc2C(=O)O)c2nc(N3CCC(c4cc[nH]n4)CC3)c(C#N)c(=O)n2c1 [Example 11-53, (R)-2-((1-(2-(4-(1H-pyrazol-3-yl)piperidin-1-yl)-3-cyano-7-methyl-4-oxo-4H-pyrido[1,2-a]pyrimidin-9-yl)ethyl)amino)benzoic acid] |
| > 10 | > 10 | – | Cc1cc(C(C)Nc2ccccc2C(=O)O)c2nc(N(C)C)cc(=O)n2c1 (stereo not shown) [Example 11-408, 2-((1-(2-(dimethylamino)-7-methyl-4-oxo-4H-pyrido[1,2-a]pyrimidin-9-yl)ethyl)amino)benzoic acid] |
| – | > 10 | 0.11 | Cc1cc([C@@H](C)Nc2ccccc2C(=O)O)c2nc(N3CCN(c4ccc(C#N)cc4)CC3C)c(C)c(=O)n2c1 (stereo partly drawn) [Example 11-269, 2-(((1R)-1-(2-(4-(4-cyanophenyl)-2-methylpiperazin-1-yl)-3,7-dimethyl-4-oxo-4H-pyrido[1,2-a]pyrimidin-9-yl)ethyl)amino)benzoic acid] |
| 0.679 | > 10 | – | Cc1cc([C@@H](C)Nc2ccccc2C(=O)O)c2nc(-c3cn(-c4ccc(C#N)cc4)cn3)c(C)c(=O)n2c1 [Example 11-236, (R)-2-((1-(2-(1-(4-cyanophenyl)-1H-imidazol-4-yl)-3,7-dimethyl-4-oxo-4H-pyrido[1,2-a]pyrimidin-9-yl)ethyl)amino)benzoic acid] |

— patent publication US20260078120A1, “SUBSTITUTED PYRIDOPYRIMIDINONES” (MIRATI THERAPEUTICS, INC., priority 2022, published 2026)
